Results from patent US5532229A, “Topical administration of vitamin D to mammals” (priority 1994, dated 1996).

Tests used:
[1] = application to skin of rats; cited from earlier work
[2] = Experiment 2: uptake of [14C]-vitamin D3 tracer into serum and conversion to [14C]-25(OH)D3; assay type: in vivo, Male Wistar rats
Procedure: One dose of [carbon-14]-labelled vitamin D3 was given at the time of the last of 14 daily doses of nonradioactive vitamin D3. The graphs show the uptake and metabolism of one [^14 C]-vitamin D3 dose during the course of gastric or dermal supplementation with vitamin D3. The tracer was given in addition to the usual, 8 μg/day vitamin D3 dose, and by the same route. Radioactivity in serum was isolated by chromatography to measure that which elutes as vitamin D3, or as […], Each point is the mean of results from six rats;
Uptake of radioactive vitamin D3 from skin or gut during the longer term treatment with vitamin D3 at 20 nmol/day.
The previous experiment 1 involved only one acute dose of a minute, tracer amount of vitamin D3. It remained possible that dermal application could not deliver a larger, more nutritionally relevant amount of vitamin D3. This experiment 2 looked at what happens when vitamin D3 is given during the course of daily treatment with a moderate amount of vitamin D3.
After 30 days, the rats were divided into three groups of 6: one group continued with no supplement, one group was given daily vitamin D3 supplement, 8 μg/day either by gastric tube, the third received the supplement by application to the skin in 50 μL ethanol. Vitamin D3 was given for 3 wk. The day before the rats were killed, the vitamin D3 dose was supplemented with [^14 C]-labelled vitamin D3, 915,000 cpm per rat. Blood was obtained from the tail of each rat at 3 h, 9 h, and by heart puncture when the rats were anesthetized for killing, 24 h after giving the tracer. The blood was extracted and chromatographed to distinguish [^14 C]-vitamin D3 from the [^14 C]-25(OH)D3generated from it. Radioactivity was also measured in the liver, kidney, and adipose tissue. Serum nonradioactive 25(OH)D3 was also measured.

[3] = Experiment 5: [14C]-vitamin D3 left on skin at application site; assay type: in vivo, Male Wistar rats; conditions: for % [14C]-D3 Left on Skin: 2 weeks, 1440 min
Procedure: This experiment was to compare potential toxic effects of vitamin D3 given for a 2 wk period, at the near-fatal dose of 800 μg per day by gastric tube, or by dermal administration at 800 μg/day or 2600 μg/day. Another goal was find evidence of saturable dermal uptake by including [^14 C]-vitamin D3 to monitor its removal from the skin at the high doses of vitamin D3.
Male Wistar rats, 190±10 g were obtained and divided into three groups of 7. They were treated for 2 weeks with one the following: 2000 nmol/day of vitamin D3 by gastric tube; 800 μg/day applied to a 2×2 cm patch of skin on the back; 2600 μg/day skin. The day before killing, 66,000 counts per minute of [^14 C]-vitamin D3 was applied along with the dermal dose to permit a determination of uptake from the skin. The rats were killed after two weeks for analysis of serum, urine, kidney, and aorta. The calcium in urine and acid-treated homogenate of kidney was measured by chemical colorimetry; aorta calcium was measured by treating with nitric acid measuring calcium by atomic absorption.

[4] = oral, in chylomicrons; cited from earlier work

C=C1/C(=C\C=C2/CCC[C@]3(C)[C@@H]([C@H](C)CCCC(C)(C)O)CC[C@@H]23)C[C@@H](O)C[C@@H]1O [1,25(OH)2 D3]
intestinal calcium transport [1]: increased | serum calcium [1]: increased

C[C@H](CCCC(C)(C)O)[C@H]1CC[C@H]2C3=CC=C4CC(O)CC(O)[C@]4(C)[C@H]3CC[C@]12C (stereo partly shown) [1,25-dihydroxylated-7-dehydrocholesterol]
intestinal calcium transport [1]: increased | serum calcium [1]: increased

C=C1CC[C@H](O)[14CH2]/C1=C/C=C1\CCC[C@]2(C)[C@@H]([C@H](C)CCCC(C)C)CC[C@@H]12 [[^14 C]-vitamin D3]
time until [14C]-25(OH)D3 evident in serum ([2]; dermal administration, after dosing): ≥ 24 h | [14C]-25(OH)D3 detection in serum ([2]; oral dosing): detected in every sample | % [14C]-D3 Left on Skin ([3]; dermal 800 μg/day): 47.8% | % [14C]-D3 Left on Skin ([3]; dermal 2600 μg/day): 65.6% | proportion of administered vitamin D3 left in the skin, effect of dose ([3]; dermal 800 vs 2600 μg/day): only marginally affected by the dose

C=C1CC[C@H](O)C/C1=C/C=C1\CCC[C@]2(C)[C@@H]([C@H](C)/C=C/[C@H](C)C(C)C)CC[C@@H]12 [vitamin D2]
activation into 25-hydroxyvitamin D2 [4]: partially activated into 25-hydroxyvitamin D2 relatively quickly
